Source: patent US6472213B1, “Shuttle vectors for the introduction of DNA into mycobacteria and utilization of such bacteria as vaccines” (Institut National de la Sante et de la Recherche Medicale …, priority 1994, dated 2002)

What was measured:
Type in all cases: cell-based, M. smegmatis, M. bovis BCG, M. tuberculosis
[1] = system: non-transformed control mycobacteria
[2] = system: pVN2-carrying mycobacteria
[3] = system: mycobacteria carrying the plasmid pMR001

[Cl][Hg][Cl] [HgCl2]
Phenotypes of resistance to mercury [1]: S | Phenotypes of resistance to mercury [2]: R | level of resistance [2]: 40 mg/mL | Phenotypes of resistance to mercury [3]: R
